According to publication PMC9558510 (Cancers, 2022):

Experiments:
[1] = Logistic regression of dose reduction/discontinuation vs predicted exposure; format: in vivo, human; details: for relationship between dose reduction or discontinuation due to AE and predicted serum trough concentrations or AUCτ: logistic regression, standard dosing assumed
Procedure: (§1) Data were collected and processed using Microsoft Excel 2016 Version 16.0 (Microsoft Corporation, Redmond, WA, USA). Statistical calculations and visualization of results were performed with R Studio Version 1.2.5042 (RStudio Incorporation, Boston, MA, USA) running R version 4.0.5 (R Foundation for Statistical Computing, Vienna, Austria, 2020). For further analysis, serum concentrations were divided into groups according to time interval post-dose as follows: 0–5 h, 5–10 h, 10–14 h, and >14 h for (hydroxy-)dabrafenib and 0–10 h, 10–20 h, 20–30 h, and >30 h for trametinib. Concentrations < LLOQ were excluded from further statistical analyses. The concentrations of the same patient at the same dosage and within the same post-dose group were summarized into an individual mean serum concentration for descriptive statistical analysis to account for potential bias caused by the unbalanced number of samples per patient. […] The Wilcoxon […] test was used for unpaired samples. The correlations between individual PK parameters sampled from the conditional distribution during the generation of EBE (methods for estimation see below) and age, sex, body mass index (BMI), and co-medication were analyzed using analysis of variance (ANOVA) and Spearman’s correlation coefficient. Logistic regression was used to compare the risk of treatment discontinuations or dose reductions (dabrafenib dose reduction or discontinuation, trametinib dose reduction or discontinuation, or any dose reduction or discontinuation) with the corresponding predicted trough concentrations and area under the curve of a dosing interval (AUCτ) of dabrafenib, hydroxy-dabrafenib, and trametinib as well as with the composite predicted dabrafenib/hydroxy-dabrafenib trough concentration and with composite dabrafenib/hydroxy-dabrafenib AUCτ assuming standard dosing. The Hosmer–Lemeshow test was used to evaluate the goodness of fit for our logistic regression model. Due to the explorative nature of the study, p-values obtained from multiple comparisons were not corrected for multiple testing. A p-value < 0.05 was considered statistically significant.

[2] = Observed steady-state serum concentrations (LC-MS/MS) in melanoma patients; format: in vivo, human; details: for effect of co-medication with at least one P-gp inducer on individual mean trough concentrations / serum Cmin mean / serum Cmin median: standard dose
Procedure: Serum samples were collected regularly during each routine outpatient visit from study enrollment until January 2022 or until treatment discontinuation. If possible, blood sampling was performed before the next drug administration, but any time interval between the last administration and blood withdrawal was accepted. The steady-state was assumed after continuous dosing for fourteen days for both compounds.
Hydroxy-dabrafenib concentrations were analyzed using a different previously published LC-MS/MS method with an LLOQ of 10 ng/mL [37]. […] Hydroxy-dabrafenib was not quantified in capillary blood samples as the methodology was not available at the time of analysis. All the methods have been validated according to the guidelines of the U.S. Food and Drug Administration and/or the European Medicines Agency.
as §1

[3] = Adverse events (CTCAE v5.0), dose reductions and treatment discontinuations; format: in vivo, human; details: for patients with dose reduction of the named drug due to AE during the study period: 27 patients
Source text: AE was routinely assessed by the treating physicians at each serum sampling time point and graded according to the […] (CTCAE) Version 5.0 [35]. Additionally, permanent and temporary treatment discontinuations, dose reductions, and corresponding reasons were documented. Further recorded patient data included age, sex, height, weight, smoking status, dosing regimen, co-medication, and relevant laboratory parameters if ordered by the treating physician (platelet count, white blood cell count, absolute neutrophil count, absolute lymphocyte count, hemoglobin, bilirubin, aspartate and alanine aminotransferase, alkaline phosphatase, gamma-glutamyl transferase, amylase, lipase, creatine kinase, phosphate, sodium, glucose, serum creatinine, and estimated glomerular filtration rate). The treatment and frequency of visits were managed by the treating physicians without knowing the measured drug concentrations. AE was not assessed simultaneously with the collection of VAMS samples.

[4] = design: method as in PMID 32283865; details: popPK model population value; cited from earlier work
[5] = serum, dabrafenib dose of 150 mg q12h

CC(C)(C)c1nc(-c2cccc(NS(=O)(=O)c3c(F)cccc3F)c2F)c(-c2ccnc(N)n2)s1 [dabrafenib]
relationship between dose reduction or discontinuation due to AE and predicted serum trough concentrations or AUCτ [1]: no significant relationships
median of individual mean trough concentration [2, 5]: 45.0 ng/mL
range of individual mean trough concentration [2, 5]: 20 to 155 ng/mL
effect of co-medication with at least one P-gp inducer on individual mean trough concentrations ([2]; serum): no effect
serum Cmin mean ([2]; BMI (kg/m2) < 30): 46.5 ng/mL
serum Cmin median ([2]; BMI (kg/m2) < 30): 42.9 ng/mL
serum Cmin mean ([2]; BMI (kg/m2) >= 30): 69.1 ng/mL
serum Cmin median ([2]; BMI (kg/m2) >= 30): 54 ng/mL
serum Cmin mean ([2]; P-gp inducer: no): 60.9 ng/mL
serum Cmin median ([2]; P-gp inducer: no): 48 ng/mL
serum Cmin mean ([2]; P-gp inducer: yes): 40.4 ng/mL
serum Cmin median ([2]; P-gp inducer: yes): 41.8 ng/mL
serum Cmin mean ([2]; P-gp inhibitor: no): 77.8 ng/mL
serum Cmin median ([2]; P-gp inhibitor: no): 52.9 ng/mL
serum Cmin mean ([2]; P-gp inhibitor: yes): 42.4 ng/mL
serum Cmin median ([2]; P-gp inhibitor: yes): 41.8 ng/mL
serum Cmin mean ([2]; PPI: no): 63.1 ng/mL
serum Cmin median ([2]; PPI: no): 51.6 ng/mL
serum Cmin mean ([2]; PPI: yes): 32.4 ng/mL
serum Cmin median ([2]; PPI: yes): 32.4 ng/mL
serum Cmin mean ([2]; age above 65: no): 54.9 ng/mL
serum Cmin median ([2]; age above 65: no): 43.5 ng/mL
serum Cmin mean ([2]; age above 65: yes): 51.9 ng/mL
serum Cmin median ([2]; age above 65: yes): 42.9 ng/mL
serum Cmin mean ([2]; moderate CYP2C8 inhibitor: no): 58.9 ng/mL
serum Cmin median ([2]; moderate CYP2C8 inhibitor: no): 44.3 ng/mL
serum Cmin mean ([2]; moderate CYP2C8 inhibitor: yes): 46.9 ng/mL
serum Cmin median ([2]; moderate CYP2C8 inhibitor: yes): 47.4 ng/mL
serum Cmin mean ([2]; sex female): 75.5 ng/mL
serum Cmin median ([2]; sex female): 52.9 ng/mL
serum Cmin mean ([2]; sex male): 36.5 ng/mL
serum Cmin median ([2]; sex male): 39.3 ng/mL
patients with dose reduction of the named drug due to AE during the study period [3]: 7.4%
dose reduction n (%) ([3]; none): 24 (88.9) n (%)
permanent treatment discontinuation n (%) ([3]; none): 19 (70.4) n (%)
temporary treatment discontinuation n (%) ([3]; none): 17 (63.0) n (%)
permanent treatment discontinuation n (%) ([3]; reason: adverse events): 2 (7.4) n (%)
CENT (central compartment) volume [4]: 39.5 L
CL/F (oral clearance from central compartment) [4]: 17.7 L/h
PER (peripheral compartment) volume [4]: 19.6 L
Tlag (lag time before beginning of absorption process) [4]: 0.5 h
ka (absorption rate constant) [4]: 1.8 h⁻¹

CC(=O)Nc1cccc(-n2c(=O)n(C3CC3)c(=O)c3c(Nc4ccc(I)cc4F)n(C)c(=O)c(C)c32)c1 [trametinib]
relationship between dose reduction or discontinuation due to AE and predicted serum trough concentrations or AUCτ [1]: no significant relationships
effect of Cmin on probability of dose reduction or treatment discontinuation (logistic regression) ([1]; predicted trough concentration as exposure surrogate, intercept -0.349, p-value 0.0798): 0.06178
median of mean trough concentration ([2]; serum, 2 mg q24h): 11.2 ng/mL
range of mean trough concentration ([2]; serum, 2 mg q24h): 6.22 to 15.9 ng/mL
effect of co-medication with at least one P-gp inducer on individual mean trough concentrations ([2]; serum): significant decrease
serum Cmin mean ([2]; BMI (kg/m2) < 30): 11.2 ng/mL
serum Cmin median ([2]; BMI (kg/m2) < 30): 11.4 ng/mL
serum Cmin mean ([2]; BMI (kg/m2) >= 30): 9.93 ng/mL
serum Cmin median ([2]; BMI (kg/m2) >= 30): 9.79 ng/mL
serum Cmin mean ([2]; P-gp inducer: no): 11.5 ng/mL
serum Cmin median ([2]; P-gp inducer: no): 11.7 ng/mL
serum Cmin mean ([2]; P-gp inducer: yes): 9.3 ng/mL
serum Cmin median ([2]; P-gp inducer: yes): 9.68 ng/mL
serum Cmin mean ([2]; P-gp inhibitor: no): 10.9 ng/mL
serum Cmin median ([2]; P-gp inhibitor: no): 11.3 ng/mL
serum Cmin mean ([2]; P-gp inhibitor: yes): 10.5 ng/mL
serum Cmin median ([2]; P-gp inhibitor: yes): 10.9 ng/mL
serum Cmin mean ([2]; PPI: no): 10.8 ng/mL
serum Cmin median ([2]; PPI: no): 11.5 ng/mL
serum Cmin mean ([2]; PPI: yes): 10.7 ng/mL
serum Cmin median ([2]; PPI: yes): 10.9 ng/mL
serum Cmin mean ([2]; age above 65: no): 10.6 ng/mL
serum Cmin median ([2]; age above 65: no): 11.3 ng/mL
serum Cmin mean ([2]; age above 65: yes): 10.9 ng/mL
serum Cmin median ([2]; age above 65: yes): 10.9 ng/mL
serum Cmin mean ([2]; sex female): 11.1 ng/mL
serum Cmin median ([2]; sex female): 11.3 ng/mL
serum Cmin mean ([2]; sex male): 10.6 ng/mL
serum Cmin median ([2]; sex male): 11.2 ng/mL
patients with dose reduction of the named drug due to AE during the study period [3]: 3.7%
patients who discontinued the named drug(s) permanently due to AE ([3]; both drugs, or only trametinib): 3.7%
dose reduction n (%) ([3]; none): 21 (77.8) n (%)
permanent treatment discontinuation n (%) ([3]; none): 18 (66.7) n (%)
temporary treatment discontinuation n (%) ([3]; none): 17 (63.0) n (%)
permanent treatment discontinuation n (%) ([3]; reason: adverse events): 3 (11.1) n (%)
CENT (central compartment) volume [4]: 61.9 L
CL/F (oral clearance from central compartment) [4]: 5.83 L/h
PER (peripheral compartment) volume [4]: 417 L
Tlag (lag time before beginning of absorption process) [4]: 0.709 h
ka (absorption rate constant) [4]: 0.913 h⁻¹
